Like-named read-outs stand apart in the source and are kept apart here.
How the values were obtained:
[1] = test system: Rhizoctonia solani; test: B.2.4 microtest, activity against Rhizoctonia solani; type: cell-based; conditions: MTP, 7 days after inoculation
[2] = test system: Pyricularia oryzae; type: cell-based; conditions: MTP, 7 days after inoculation
[3] = test system: Microdochium nivale; test: B.2.3 microtest, activity against Microdochium nivale; type: cell-based; conditions: MTP, 7 days after inoculation
[4] = test system: western corn rootworm (Diabrotica virgifera virgifera); test: Test B.1.2 control of western corn rootworm, maximum exposure to treated soil; type: in vivo; conditions: mortality 3 DAI
Source text: For evaluating control of western corn rootworm (Diabrotica virgifera virgifera) through maximum exposure method, the insects were exposed to treated soil.
The compounds or mixtures were first dissolved in acetone, and then mixed with soil to obtain the desired different ppm concentrations (w/w) of compound/soil or mixture/soil. For experimental mixtures, identical volumes of both mixing partners were mixed together to achieve the desired respective concentrations. Treatments were applied in solution to sifted (#10 sieve) loamy sand in a plastic bag. Treatments were thoroughly incorporated by sealing and shaking each bag by hand and allowing the solution to soak through the soil mass for at least 10 minutes. Bags were then unsealed and kept open in a fume hood overnight to evaporate the solvent from the soil.
One day after treatment (DAT) water for moisture and water-soaked millet seed as a food source were added to each bag and incorporated thoroughly. About 11 cm^3 of the millet and soil mixture was dispensed into a 1-oz. plastic cup. Each cup was infested with 10 western corn rootworm second-instar larvae and covered. Each cup was a replicate and replication was 3×. The test was maintained in an incubator at 26±1° C. in the dark. Mortality (dead+moribund insects) was evaluated 3 days after infestation (DAI) and mean percent mortality was calculated relative to the untreated control.

[5] = test system: Alternaria solani; test: B.2.2 microtest, activity against early blight; type: cell-based; conditions: MTP, 7 days after inoculation
[6] = test system: wireworm (Melanotus communis); test: Test B.1.1 control of wireworm, direct contact (dip) method; type: in vivo; conditions: mortality 3 DAT
Procedure: For evaluating control of wireworm (Melanotus communis) through direct contact method, the individual insects were dipped directly into compound solution.
The compounds or mixtures were dissolved in acetone at different concentrations. The compounds or mixtures were formulated using a solution containing 50% (v/v) acetone in water with 0.02 wt % Kinetic®.
For the experimental mixtures, identical volumes of both mixing partners were mixed together to achieve the desired respective concentrations. Wireworms were dipped directly into solution for three seconds and then allowed to air dry on filter paper.
About 11 cm^3 of water-moistened loamy sand was dispensed into each 16-cm^2 cell of a 32-cell rearing tray. One treated wireworm larva was infested into each cell along with two germinating wheat seeds. Cells were then covered with adhesive bio-assay tray lids. Each cell was a replicate and replication was 10×. After infestation, the test was maintained in an incubator at 26±1° C. in the dark. Mortality (dead+moribund insects) was evaluated 3 days after treatment (DAT) and mean percent mortality was calculated relative to the untreated control.

[7] = test system: black cutworm (Agrotis ipsilon); test: Test B.1.3 control of black cutworm, direct contact (dip) method; type: in vivo; conditions: for Average Control % 1 DAT: mortality 1 DAT; for Average Control % 5 DAT: mortality 5 DAT
Procedure: For evaluating control of black cutworm (Agrotis ipsilon) through direct contact method, the individual insects were dipped directly into compound solution.
The compounds or mixtures were dissolved in acetone at different concentrations. The compounds or mixtures were formulated using a solution containing 50% (v/v) acetone in water with 0.02 wt % Kinetic®. For experimental mixtures, identical volumes of both mixing partners were mixed together to achieve the desired respective concentrations. Second-instar black cutworms were dipped directly into solution for three seconds and then allowed to air dry on filter paper. One treated black cutworm larva was infested into each 16-cm^2 cell of a 32-cell rearing tray along with the excised shoot of a corn plant and a moistened cotton wick. Cells were then covered with adhesive bio-assay tray lids. Each cell was a replicate and replication was 16×. After infestation, the test was maintained in an incubator at 25.5±1° C. and a 14L:10D light cycle. Mortality (dead+moribund insects) was evaluated 1 and 5 days after treatment (DAT) and mean percent mortality was calculated relative to the untreated control.

[8] = test system: root-knot nematodes (Meloidogyne spp.); test: Test B.1.5 control of root-knot nematodes, drench application on cucumber plants; type: in vivo; conditions: four weeks after infestation
Procedure: For evaluating control of root-knot nematodes (Meloidogyne spp.) through exposure via drench application, the nematodes were introduced to treated cucumber plants.
The compounds or mixtures were dissolved in acetone at different concentrations. The compounds or mixtures were formulated using a solution containing 50% (v/v) acetone in water with 0.02 wt % Kinetic®. For experimental mixtures, identical volumes of both mixing partners were mixed together to achieve the desired respective concentrations.
Germinated cucumber seeds were planted in 1-oz black plastic cups (one seed per cup) with dry, sifted (#10 sieve) play sand. Treatments were applied as a drench in 7 ml solution to each cup which were held in a fume hood for 1 hour to allow acetone to evaporate. The cups were moved to an environmental chamber (25±2° C., 24 L) and watered daily for the duration of the test. Each cup was a replicate and replication was 5×. At the cucumber's cotyledon stage, each cup was infested with 500 root-knot nematode juveniles (J2s) in 1 ml distilled water.
Four weeks after infestation, cucumber roots were washed off and galls and egg masses were counted. Control was calculated as the reduction in galls or egg masses relative to the untreated control. Mean percent control was calculated for each treatment.

[9] = test system: seedcorn maggot (Della platura); test: Test B.1.4 control of seedcorn maggot, maximum exposure to treated soil; type: in vivo; conditions: mortality 2 DAT
Source text: For evaluating control of seedcorn maggot (Della platura) through maximum exposure, the insects were exposed to treated soil.
The compounds or mixtures were first dissolved in acetone, and then mixed with soil to obtain the desired different ppm concentrations (w/w) of compound/soil or mixture/soil. For experimental mixtures, identical volumes of both mixing partners were mixed together to achieve the desired respective concentrations. Treatments were applied in solution to dry, sifted (#10 sieve) play sand in a glass jar. Treatments were thoroughly incorporated by capping and shaking each jar by hand and allowing the solution to soak through the sand mass for at least 10 minutes. The jars were then uncapped and the sand was kept in a fume hood for 4 hours to evaporate the solvent.
After the sand was dry, 10 cm^3 of the treated sand was dispensed into a 1-oz. plastic cup with bone meal in the bottom as a food source. Each cup was moistened with 4 ml water, infested with five seedcorn maggot second-instar larvae, and covered. Each cup was a replicate and replication was 5×. The test was maintained in an incubator at 22±1° C. in the dark. Mortality (dead+moribund insects) was evaluated 2 days after treatment (DAT) and mean percent mortality was calculated relative to the untreated control.

## Fc1ccc([C@]2(Cn3cncn3)O[C@H]2c2ccccc2Cl)cc1 (racemic) [Epoxiconazol, Epoxiconazole]
[1]; 0.001 ppm
  Observed efficacy: 0
[1]; 0.004 ppm
  Observed efficacy: 0
[1]; 0.016 ppm
  Observed efficacy: 24
[2]; 0.063 ppm
  Observed efficacy: 1
[2]; 0.25 ppm
  Observed efficacy: 28
[3]; 0.004 ppm
  Observed efficacy: 8
[3]; 0.016 ppm
  Observed efficacy: 29

## CN(C(=O)c1ccccc1)c1cccc(C(=O)Nc2c(Br)cc(C(F)(C(F)(F)F)C(F)(F)F)cc2C(F)(F)F)c1F [Carboxamide compound of formula I]
[1]; 1 ppm
  Observed efficacy: 0
[1]; 4 ppm
  Observed efficacy: 0
[1]; 16 ppm
  Observed efficacy: 0
[2]; 0.063 ppm
  Observed efficacy: 2
[2]; 1 ppm
  Observed efficacy: 12
[2]; 4 ppm
  Observed efficacy: 15
[2]; 16 ppm
  Observed efficacy: 4
[4]; 0.01 ppm compound/soil
  Average Control %: 30%
[5]; 1 ppm
  Observed efficacy: 0
[5]; 4 ppm
  Observed efficacy: 0
[5]; 16 ppm
  Observed efficacy: 0
[5]; 63 ppm
  Observed efficacy: 0
[6]; 3 ppm
  Average Control %: 33%
[7]; 3 ppm
  Average Control % 1 DAT: 38%
  Average Control % 5 DAT: 44%
[8]; 0.3 mg compound/plant
  Average Egg Mass Control %: −21%
  Average Gall Control %: 35%
[9]; 0.06 ppm compound/soil
  Average Control %: 21%
[3]; 4 ppm
  Observed efficacy: 13
[3]; 16 ppm
  Observed efficacy: 15
[3]; 63 ppm
  Observed efficacy: 4

## CN/C(=N\[N+](=O)[O-])NCc1cnc(Cl)s1 [Clothianidin]
[4]; 0.1 ppm compound/soil
  Average Control %: 33%

## CNC(=O)c1cc(C#N)cc(C)c1NC(=O)c1cc(Br)nn1-c1ncccc1Cl [Cyantraniliprole, cyantraniliprole]
[4]; 3.1 ppm compound/soil
  Average Control %: 23%
[6]; 225 ppm
  Average Control %: 22%
[9]; 10 ppm compound/soil
  Average Control %: 64%

## N#Cc1nn(-c2c(Cl)cc(C(F)(F)F)cc2Cl)c(N)c1[S+]([O-])C(F)(F)F (centres unmarked) [Fipronil]
[4]; 0.03 ppm compound/soil
  Average Control %: 27%
[6]; 30 ppm
  Average Control %: 22%
[7]; 300 ppm
  Average Control % 1 DAT: 13%
  Average Control % 5 DAT: 31%

## Cn1cc(C(=O)Nc2ccccc2-c2cc(F)c(F)c(F)c2)c(C(F)F)n1 [Fluxapyroxad]
[3]; 0.004 ppm
  Observed efficacy: 0
[3]; 0.063 ppm
  Observed efficacy: 0

## O=[N+]([O-])NC1=NCCN1Cc1ccc(Cl)nc1 [Imidacloprid]
[4]; 0.13 ppm compound/soil
  Average Control %: 17%
[9]; 3 ppm compound/soil
  Average Control %: 18%

## COC(=O)N(OC)c1ccccc1COc1ccn(-c2ccc(Cl)cc2)n1 [Pyraclostrobin]
[5]; 0.016 ppm
  Observed efficacy: 0
[5]; 0.063 ppm
  Observed efficacy: 12
[3]; 0.016 ppm
  Observed efficacy: 46

## N#C/N=C1\SCCN1Cc1ccc(Cl)nc1 [Thiacloprid]
[4]; 0.2 ppm compound/soil
  Average Control %: 37%

## CN1COCN(Cc2cnc(Cl)s2)/C1=N\[N+](=O)[O-] [Thiamethoxam]
[6]; 25 ppm
  Average Control %: 11%

## CC1(C)CCC(=Cc2ccc(Cl)cc2)C1(O)Cn1cncn1 (centres unmarked) [Triticonazol, Triticonazole]
[1]; 0.25 ppm
  Observed efficacy: 41
[5]; 0.25 ppm
  Observed efficacy: 0
[5]; 1 ppm
  Observed efficacy: 23

## Abamectin
[8]; 0.008 mg compound/plant
  Average Egg Mass Control %: 17%
  Average Gall Control %: 24%
[8]; 0.017 mg compound/plant
  Average Egg Mass Control %: 39%
  Average Gall Control %: 40%

## emamectin
[6]; 800 ppm
  Average Control %: 11%
